Test results published in patent US5760036A, “Aminediol protease inhibitors” (E. R. Squibb & Sons, Inc., priority 1995, dated 1998).

target: T1, HIV protease (Human immunodeficiency virus type 1 group M subtype B, UniProt P04585); test: HIV Protease Assay; type: biochemical; conditions: 10 μM inhibitor, 4% DMSO, 450 μM substrate, pH 5.5, 30 minutes at 37° C., RP-HPLC
T1 construct: and purified protease
Procedure, shortened: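 Purified protease cleaved 450 μM octapeptide substrate in 50 mM sodium acetate pH 5.5 with 100 μg/ml BSA for 30 minutes at 37° C; product analyzed by reverse-phase HPLC at UV220 after H3PO4 quench. Inhibitors tested at final 10 μM with 4% DMSO.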

Structure (SMILES) | HIV Protease % Inhibition at 10 μM
CC(C)(C)OC(=O)N[C@@H](Cc1ccccc1)[C@H](O)CNC[C@@H](O)[C@H](Cc1ccccc1)NC(=O)C1(O)CCc2ccccc21 (single isomer, unassigned; isomer a) [Compound 375, [1S-[1R*,2S*(2S*, 3R*)]]-[3-[[3-]](2,3-Dihydro-1-hydroxy-1H-inden-1-yl)carbonyl]amino]-2-hydroxy-4-phenylbutyl]amino]-2-hydroxy-1-(phenylmethyl)-propyl]carbamic acid, 1,1-dimethylethyl ester, isomer A] | 98%
CC(C)(C)OC(=O)N[C@@H](Cc1ccccc1)[C@H](O)CNC[C@@H](O)[C@H](Cc1ccccc1)NC(=O)C(O)(CO)C(C)(C)C (single isomer, unassigned; isomer b) [Compound 367, [1S-[1R*,2S*(2S*,3R*)]]-[3-[[3-[[2-Hydroxy-2-(hydroxymethyl)-3.3-dimethyl-l-oxobutyl]amino]-2-hydroxy-4-phenylbutyl]amino]-2-hydroxy-1-(phenylmethyl)propyl]carbamic acid. 1.1-dimethylethyl ester, isomer B] | 50%
CC(C)(CO)OC(=O)N[C@@H](Cc1ccccc1)[C@H](O)CNC[C@@H](O)[C@H](Cc1ccccc1)NC(=O)C1(O)CCCC1(C)C (single isomer, unassigned; isomer b) [Compound 369, [1S-[1R*,2S*(2S*,3R*)]]-[r3-[[3-[[(2,2-Dimethyl-1-hydroxycyclopentyl)-carbonyl]amino]-2-hydroxy-4-phenylbutyl]amino]-2-hydroxy-1-(phenylmethyl)propyl]carbamic acid, 2-hydroxy-1,1-dimethylethyl ester. isomer B] | 96%
CC(C)(C)OC(=O)N[C@@H](Cc1ccccc1)[C@H](O)CNC[C@@H](O)[C@H](Cc1ccccc1)NC(=O)C(CCO)C(C)(C)C (single isomer, unassigned; isomer b) [Compound 313, [1S-[1R*, 2S* (2S*, 3R*)][-[3-[[3-[[2-(1,1-Dimethylethyl)-4-hydroxy-1-oxobutyl]amino]-2-hydroxy-4-phenylbutyl]amino]-2-hydroxy-1-(phenylmethyl)propyl]carbamic acid, 1,1-dimethylethyl ester, isomer B] | 65%

same assay, conditions: pH 5.5, 10 μM inhibitor, 4% DMSO, 450 μM substrate, pH 5.5, 30 minutes at 37° C., RP-HPLC; read-out: HIV Protease % Inhibition at 10 μM

Structure (SMILES) | inhibition at 10 µM
CC(C)(C)OC(=O)N[C@@H](Cc1ccccc1)[C@H](O)CNC[C@@H](O)[C@H](Cc1ccccc1)NC(=O)C(C)(C)CCO [Compound 291, [1S-[1R*,2S*(2S*,3R*)]]-[2-Hydroxy-3-[[2-hydroxy-3-[(4-hydroxy-2,2-dimethyl-1-oxobutyl)amino]-4-phenylbutyl]amino]-1-(phenylmethyl)propyl]carbamic acid, 1,1-dimethylethyl ester] | 73%
CC(C)[C@H](NC(=O)OCc1ccccc1)C(=O)N[C@@H](Cc1ccccc1)[C@@H](O)CNC[C@@H](O)[C@H](Cc1ccccc1)NC(=O)OC(C)(C)C [Compound 115, [S-[1R*,2R*(2S*.3R*)]-N-[3-[[3-[[(1,1-Dimethylethoxy)carbonyl]amino]-2-hydroxy-4-phenylbutyl]amino]-2-hydroxy-1-phenylmethyl)propyl]-N^2-[(phenylmethoxy)-carbonyl]-L-valinamide] | 58%
CC(C)(C)OC(=O)N1CCC[C@H]1[C@H](O)CNC[C@H](O)[C@@H]1CCCN1C(=O)OC(C)(C)C [Compound 8, [S-(R*,R*)]-2-[2-[[[S-(R*,S*)]-2-[1-[(1,1-Dimethylethoxy)carbonyl]-pyrrolidinyl]-2-hydroxyethyl]amino]-hydroxyethyl]-1-pyrrolidine-carboxylic acid, (1,1-dimethylethyl) ester] | 2%
CC(C)(C)OC(=O)N[C@@H](Cc1ccccc1)[C@H](O)CNC[C@@H](O)[C@H](Cc1ccccc1)NC(=O)COc1cccc2ccccc12 [Compound 63, [1S-[1R*,2S*(2S*,3R*)]]-[2-Hydroxy-3-[[2-hydroxy-3-[[(1-naphthalenyloxy)-acetyl]amino]-4-phenylbutyl]amino]-1-(phenyl-methyl)propyl]carbamic acid, 1,1-dimethylethyl ester] | 53%
CC(C)(C)CCN[C@@H](Cc1ccccc1)[C@H](O)CNC[C@@H](O)[C@H](Cc1ccccc1)NC(=O)OC(C)(C)C [Compound 127, [1S-[1R*,2S*(2S*,3R*)]]-[3-[[3-[(3,3-Dimethylbutyl)amino]-2-hydroxy-4-phenylbutyl]amino]-2-hydroxy-1-(phenylmethyl)propyl]carbamic acid, 1,1-dimethylethyl ester] | 15%
CC(C)(C)OC(=O)N[C@@H](Cc1ccccc1)[C@H](O)CNC[C@H](O)[C@@H](Cc1ccccc1)NC(=O)OC(C)(C)C [Compound 26ii, [1R-[1R*,2S*(2R*,3S*)]]-3-[[3-[[(1,1-Dimethylethoxy)carbonyl]amino]-2-hydroxy-4-phenylbutyl]amino]-2-hydroxy-1-(phenylmethyl)-propyl]carbamic acid, 1,1-dimethylethyl ester] | 41%
CC(C)(C)OC(=O)N1Cc2ccccc2C[C@H]1[C@H](O)CNC[C@H](O)[C@@H]1Cc2ccccc2CN1C(=O)OC(C)(C)C [Compound 12, [S-(R*,R*)]-3-[2-[[[-(R*,S*)]-2-[2-[(1,1-Dimethylethoxy)carbonyl]-1,2,3,4-tetrahydro-3-isoquinolinyl]-2-hydroxyethyl]amino]-1-hydroxyethyl]-3,4-dihydro-2(1H)-isoquinolinecarboxylic acid, (1,1-dimethylethyl) ester] | 1%
CC(C)(C)OC(=O)N[C@@H](Cc1ccccc1)[C@H](O)CNC[C@@H](O)[C@H](Cc1ccccc1)NC(=O)CC(O)CO (stereo partly drawn) [Compound 255, [1S-[1R*,2S*(2S*,3R*)]]-[3-[[3-[(3,4-Dihydroxy-1-oxo-butyl)amino]-2-hydroxy-4-phenylbutyl]amino]-2-hydroxy-1-(phenylmethyl)propyl]carbamic acid, 1,1-dimethylethyl ester] | 86%
CN(Cc1ccccc1)C(=O)N[C@@H](Cc1ccccc1)[C@H](O)CNC[C@@H](O)[C@H](Cc1ccccc1)NC(=O)OC(C)(C)C [Compound 69, [1S-[1R*,2S*(2S*,3R*)]]-2-Hydrox3-[[2-hydroxy-3-[[[methyl(phenylmethyl)-amino]carbonyl]amino]-4-phenylbutyl]amino]-1-(phenylmethyl)propyl]carbamic acid, 1,1-dimethylethyl ester] | 11%
CNC(=O)OC(C(=O)N[C@@H](Cc1ccccc1)[C@H](O)CNC[C@@H](O)[C@H](Cc1ccccc1)NC(=O)OC(C)(C)C)C(C)(C)C (stereo partly drawn) [Compound 287, [1S-[1R*,2S*(2S*,3R*)]]-[3-[[3-[[3,3-Dimethyl-2-[[(methylamino)carbonyl]oxy]-1-oxobutyl]amino]-2-hydroxy-4-phenylbutyl]amino]-2-hydroxy-1-(phenylmethyl)propyl]-carbamic acid, 1,1-dimethylethyl ester] | 89%
CN(C(=O)NC(C)(C)C)[C@@H](Cc1ccccc1)[C@H](O)CNC[C@@H](O)[C@H](Cc1ccccc1)NC(=O)OC(C)(C)C [Compound 136, [1S-[1R*,2S*(2S*,3R*)]]-[3-[[3-[[[(1,1-Dimethylethyl)amino]carbonyl]methylamino]-2-hydroxy-4-phenylbutyl]amino]-2-hydroxy-1-(phenylmethyl))propyl]carbamic acid, 1,1-dimethylethyl ester] | 73%
CC(C)(C)OC(=O)N[C@@H](Cc1ccccc1)[C@H](O)CNC[C@@H](O)[C@H](Cc1ccccc1)NC(=O)OC1(C)CCCC1O (stereo partly drawn) [Compound 379, [1S-(1R*,2S*) (trans)]-[Iminobis[2-hydroxy-1-(phenylmethyl)-3,1-propanediyl]]bis[carbamic acid], 1,1-dimethylethyl 2-hydroxy-1-methylcyclopentyl ester] | 98%
CC(C)[C@H](N)C(=O)N[C@@H](Cc1ccccc1)[C@H](O)CNC[C@@H](O)[C@H](Cc1ccccc1)NC(=O)[C@@H](N)C(C)C [Compound 43, [S-(1S*,2R*)]-N,N'-[Iminobis[2-hydroxy-1-(phenylmethyl)-3,1-propanediyl]]bis-L-valinamide] | 21%
CC(C)(C)OC(=O)N[C@@H](Cc1ccccc1)[C@H](O)CNCC(C)(O)[C@H](Cc1ccccc1)NC(=O)OC(C)(C)C (stereo partly drawn) [Compound 192, [1S-[1R*,2S*(3R*)]]-[3-[[3-[[(1,1-Dimethylethoxy)carbonyl]amino]-2-hydroxy-2-methyl-4-phenylbutyl]amino]-2-hydroxy-1-(phenylmethyl)propyl]amino]carbamic acid, 1,1-dimethylethyl ester] | 85%
CC(C)(C)OC(=O)N[C@@H](Cc1ccccc1)[C@H](O)CNC[C@@H](O)[C@H](Cc1ccccc1)NC(=O)C1c2ccccc2CN1C=O (stereo partly drawn) [Compound 270, [1S-[1R*,2S*(2S*,3R*)]]-[3-[[3-[[(2-Formyl-2,3-dihydro-1H-isoindol-1-yl)carbonyl]amino]-2-hydroxy-4-phenylbutyl]amino]-2-hydroxy-1-(phenylmethyl)-propyl]carbamic acid 1,1-dimethylethyl ester] | 27%
CCc1ccccc1CC(NC(=O)OC(C)(C)C)C(O)CNCC(O)C(Cc1ccccc1)NC(=O)OC(C)(C)C (stereo not drawn) [Compound 371] | 98%

same assay, conditions: pH 5.5, read-out: HIV Protease % Inhibition at 10 μM

Structure (SMILES) | inhibition at 10 µM
CC(C)(C)COC(=O)N[C@@H](Cc1ccccc1)[C@H](O)CNC[C@@H](O)[C@H](Cc1ccccc1)NC(=O)OCC(C)(C)C [Compound 139, [1S-(1R*,2S*)]-[Iminobis[2-hydroxy-1-(phenylmethyl)-3,1-propanediyl]]biscarbamic acid, bis(2,2-dimethylpropyl)ester] | 73%
